Reference: US12121614B2, “Delayed release composition for peroral administration” (VICORE PHARMA AB, priority 2020, dated 2024)

Assay: Dissolution studies of C21 sodium salt in buffers of different pH
Format: physicochemical
Description: 50.7 mg of C21 sodium salt (Ardena, Riga, Latvia) was added to 900 mL of 0.09M carbonate buffer (pH 8.95) at a temperature of 37±3° C. with stirring. […] After 15 minutes of stirring, 2M acetic acid solution was added dropwise to provide a pH of 4.52. Evolution CO2 was noted. […] After additional stirring for a further 1.5 hours, 1M NaOH was added to increase pH to 6.8.
51.2 mg of C21 sodium salt was added to 900 mL of acetate buffer (pH 4.4) at the same temperature with stirring. […] After stirring for 1 hour, 1M NaOH solution was added dropwise to increase the pH to 7.2.
53.2 mg of C21 sodium salt was added to 900 mL 0.1M of HCl buffer (pH 1.0) at the same temperature with stirring. […] After 20 minutes of stirring, 1M NaOH solution was added dropwise to increase the pH to 4.5.
51.0 mg of C21 sodium salt was added to 900 mL of 0.1M citrate buffer (pH 4.42) at the same temperature with stirring. The added compound formed a thin slurry. It seemed that nothing had dissolved.
50.8 mg of C21 sodium salt was added to 900 mL of an acetate buffer (pH 4.49) at the same temperature. […] After stirring for 1 hour, a 1M NaOH solution was added dropwise to increase the pH to 6.8.

dissolution behaviour on addition (A) (50.7 mg in 900 mL 0.09M carbonate buffer pH 8.95, 37±3° C., stirring): dissolved instantly
dissolution behaviour on addition (C) (53.2 mg in 900 mL 0.1M HCl buffer pH 1.0, 37±3° C., stirring): dissolved instantly
appearance after acidification (A) ((A) 2M acetic acid added to pH 4.52, after stirring for 1 hour): formation of small white particles
precipitation after raising pH (C) ((C) after 20 minutes, 1M NaOH added to pH 4.5): no precipitation was observed
appearance after further stirring (C) ((C) pH 4.5, after stirring for 2 hours): solution still was clear
decomposition of C21 by UPLC (D) ((D) citrate buffer pH 4.42, end of the experiment (7 hours)): no decomposition
appearance after further stirring (D) ((D) citrate buffer pH 4.42, stirring for 7 hours): no significant change in appearance
decomposition of C21 by UPLC (E) ((E) acetate buffer pH 4.49 then pH 6.8, end of the experiment): no decomposition
appearance after raising pH (E) ((E) after 1 hour, 1M NaOH added to pH 6.8): slurry became slightly thinner
appearance after further stirring (E) ((E) pH 6.8, stirring another hour): no significant change in appearance
SMILES: CCCCOC(=O)[N-]S(=O)(=O)c1sc(CC(C)C)cc1-c1ccc(Cn2ccnc2)cc1.[Na+] [C21 sodium salt]
dissolution behaviour on addition (E) (50.8 mg in 900 mL acetate buffer pH 4.49, 37±3° C.): formed a thin slurry which floated on the surface
dissolution behaviour on addition (D) (51.0 mg in 900 mL 0.1M citrate buffer pH 4.42, 37±3° C., stirring): formed a thin slurry. It seemed that nothing had dissolved
dissolution behaviour on addition (B) (51.2 mg in 900 mL acetate buffer pH 4.4, 37±3° C., stirring): formed a thin slurry which was floated on the surface top
appearance after raising pH (A) ((A) 1M NaOH added to pH 6.8, stirring another 1.5 hours): no significant change in appearance (small white particles)
appearance after raising pH (B) ((B) after 1 hour, 1M NaOH added to pH 7.2): slurry became thinner and pieces became smaller and goo-like
appearance after further stirring (B) ((B) pH 7.2, stirring another 1.5 hours): no significant change in appearance (small goo-like particles)
